Laboratory results as given in article PMC8877008, “Synthesis and Structure–Activity Relationship Studies of Benzimidazole-4,7-dione-Based P2X3 Receptor Antagonists as Novel Anti-Nociceptive Agents” (Molecules, 2022).

What was measured:
SNL rats = assay: Antiallodynic effect, spinal nerve ligation (SNL) neuropathic pain model, von Frey; format: in vivo, male Sprague-Dawley rats; conditions: intravenous 12 mg/kg, von Frey filaments, five rats
From the text: (§1) The experimental protocol (CNUHIACUC-20039) was approved by the Institutional Animal Care and Use Committee of Chonnam National University Hospital. Animal models of neuropathic pain (NP) were constructed by spinal nerve ligation (SNL) or chemotherapeutics injection (chemotherapy-induced peripheral neuropathy, CIPN) in male Sprague-Dawley rats (weight, 150–180 g). Briefly, under sevoflurane anesthesia, the left L5 and L6 spinal nerves near the vertebral column were separated and tightly ligated using 6-0 silk. Cisplatin was administered intraperitoneally at 2 mg/kg once daily for 4 days. The paw withdrawal threshold (PWT) to mechanical stimuli was measured using calibrated 0.41–15.2 g von Frey filaments (Stoelting, Wood Dale, IL, USA), as described previously. […] The antiallodynic effects of the intravenous vehicle and LDD4692 (3mg/rat) were evaluated and expressed as the percentage of the maximal possible effect (% MPE). % MPE = [(post drug PWT − post injured baseline PWT)/(cutoff PWT − post injured baseline PWT)] × 100
(§2) For the analysis of antagonistic activities, all data were calculated by Origin Pro 9.1 software provided by Originlab and the fitting of graphs was proceeded by the growth/sigmoidal and hill1 process within no weights for data selections. For the analysis of the behavioral assessments of pain models, all data are expressed as mean ± SEM. […]

CIPN rats = assay: Antiallodynic effect, cisplatin chemotherapy-induced peripheral neuropathy (CIPN) model, von Frey; format: in vivo, male Sprague-Dawley rats; conditions: intravenous 12 mg/kg, von Frey filaments, five rats
From the text: as §1, §2

CYP 1A2 = target: T1, CYP 1A2 (Homo sapiens, UniProt P05177); assay: CYP450 inhibition 1A2; format: in vitro ADME; conditions: compound 10 μM
T1 sequence (P05177 1-516): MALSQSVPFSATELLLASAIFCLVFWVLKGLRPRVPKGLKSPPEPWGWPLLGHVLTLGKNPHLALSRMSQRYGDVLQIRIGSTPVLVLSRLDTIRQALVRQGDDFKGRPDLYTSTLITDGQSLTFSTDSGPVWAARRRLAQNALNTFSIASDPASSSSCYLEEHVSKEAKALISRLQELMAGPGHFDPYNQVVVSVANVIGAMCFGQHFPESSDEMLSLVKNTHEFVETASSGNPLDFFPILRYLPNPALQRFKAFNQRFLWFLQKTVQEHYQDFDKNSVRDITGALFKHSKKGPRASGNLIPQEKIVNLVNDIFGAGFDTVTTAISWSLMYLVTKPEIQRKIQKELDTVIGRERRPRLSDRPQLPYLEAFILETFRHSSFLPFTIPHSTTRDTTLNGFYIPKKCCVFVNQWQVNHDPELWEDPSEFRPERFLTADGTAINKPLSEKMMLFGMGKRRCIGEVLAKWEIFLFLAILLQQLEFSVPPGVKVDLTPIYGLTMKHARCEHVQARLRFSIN

- CYP450 inhibition 1A2 (CYP 1A2): 6.78%
Structure (SMILES): O=C1C(NC2CCN(C(=O)c3ccc(F)c(F)c3)CC2)=C(Cl)C(=O)c2[nH]c(C(F)(F)F)nc21 [14h, 6-Chloro-5-((1-(3,4-difluorobenzoyl)piperidin-4-yl)amino)-2-(trifluoromethyl)-1H-benzo[d]imidazole-4,7-dione]
- Maximal possible effect (% MPE), antiallodynic (SNL rats): 54%
- Maximal possible effect (% MPE), antiallodynic (CIPN rats): 78%
